Experimental data as given in the CheMixHub viscosity set.

Experiment: xn = mol fraction of the nth substance listed

CCCCCCCC/C=C\CCCCCCCC(=O)OCC + CCCCO
viscosity [mPa·s], 100 kPa
Details | x1 = 0.1 | x1 = 0.2 | x1 = 0.3 | x1 = 0.4 | x1 = 0.5 | x1 = 0.6 | x1 = 0.7 | x1 = 0.8 | x1 = 0.9
293.15 K | 3.187 | 3.558 | 3.946 | 4.315 | 4.68 | 5.024 | 5.358 | 5.682 | 6.011
298.15 K | 2.818 | 3.143 | 3.481 | 3.808 | 4.131 | 4.437 | 4.732 | 5.013 | 5.31
303.15 K | 2.491 | 2.782 | 3.08 | 3.371 | 3.649 | 3.918 | 4.175 | 4.419 | 4.678
308.15 K | 2.217 | 2.48 | 2.746 | 3.002 | 3.25 | 3.486 | 3.713 | 3.931 | 4.16
313.15 K | 1.983 | 2.223 | 2.46 | 2.683 | 2.897 | 3.103 | 3.3 | 3.49 | 3.691
318.15 K | 1.776 | 1.998 | 2.214 | 2.421 | 2.62 | 2.81 | 2.991 | 3.165 | 3.35
323.15 K | 1.6 | 1.806 | 2.002 | 2.192 | 2.371 | 2.543 | 2.707 | 2.865 | 3.032

CC(=O)OCCC(C)C + CCCCOC(C)=O
viscosity [mPa·s], 101 kPa
Details | x1 = 0.2 | x1 = 0.4 | x1 = 0.6 | x1 = 0.8
293.15 K | 0.75 | 0.776 | 0.802 | 0.831
313.15 K | 0.575 | 0.592 | 0.611 | 0.629

CCCCCCCC/C=C\CCCCCCCC(=O)OCC + CCCO
Details | viscosity [mPa·s]
303.15 K, 101 kPa, x2 = 0.2 | 4.435

CCCOCC(C)OCC(C)O (stereo unspecified) + CCCO
298.15 K, 101 kPa
Details | viscosity [mPa·s]
x1 = 0.0061 | 1.977
x1 = 0.0137 | 1.998
x1 = 0.028 | 2.036
x1 = 0.0763 | 2.163
x1 = 0.1234 | 2.28
x1 = 0.1783 | 2.416
x1 = 0.2361 | 2.556
x1 = 0.3132 | 2.74
x1 = 0.3684 | 2.862
x1 = 0.4279 | 2.985
x1 = 0.4905 | 3.102
x1 = 0.5267 | 3.164
x1 = 0.5714 | 3.239
x1 = 0.6634 | 3.388
x1 = 0.7271 | 3.495
x1 = 0.8017 | 3.617
x1 = 0.8701 | 3.728
x1 = 0.9055 | 3.78
x1 = 0.9497 | 3.837

CCCC(=O)[O-].[NH3+]CCO + CCO
viscosity [mPa·s], 101 kPa
Details | x1 = 0.0158 | x2 = 0.7685 | x2 = 0.8306 | x2 = 0.8824 | x2 = 0.9289 | x2 = 0.9483 | x2 = 0.9671
293.15 K | 1.608 | 15.79 | 8.436 | 4.968 | 2.91 | 2.364 | 1.944
298.15 K | 1.458 | 13.23 | 7.272 | 4.398 | 2.598 | 2.148 | 1.752
303.15 K | 1.35 | 11.24 | 6.33 | 3.882 | 2.34 | 1.92 | 1.602

CCCOCC(C)OCC(C)O (stereo unspecified) + CCO
viscosity [mPa·s], 101.33 kPa
Details | 298.15 K | 308.15 K | 318.15 K
x1 = 0.05 | 1.27 | 1.046 | 0.872
x1 = 0.1 | 1.446 | 1.181 | 0.978
x1 = 0.15 | 1.621 | 1.315 | 1.081
x1 = 0.2 | 1.799 | 1.446 | 1.18
x1 = 0.25 | 1.994 | 1.572 | 1.278
x1 = 0.3 | 2.144 | 1.706 | 1.374
x1 = 0.3501 | 2.322 | 1.83 | 1.468
x1 = 0.4 | 2.485 | 1.944 | 1.55
x1 = 0.4501 | 2.643 | 2.055 | 1.631
x1 = 0.5 | 2.795 | 2.163 | 1.705
x1 = 0.55 | 2.942 | 2.27 | 1.777
x1 = 0.6 | 3.081 | 2.367 | 1.842
x1 = 0.6497 | 3.218 | 2.463 | 1.905
x1 = 0.6996 | 3.343 | 2.55 | 1.965
x1 = 0.7496 | 3.475 | 2.627 | 2.02
x1 = 0.8 | 3.593 | 2.702 | 2.081
x1 = 0.8499 | 3.704 | 2.764 | 2.131
x1 = 0.8999 | 3.807 | 2.839 | 2.177
x1 = 0.95 | 3.896 | 2.906 | 2.215

CC(=O)Nc1ccccc1 + CO
viscosity [mPa·s], 101 kPa
Details | 298.15 K | 303.15 K | 308.15 K | 313.15 K
x1 = 0.08868 | 0.9964 | 0.918 | 0.8461 | 0.7805
x1 = 0.1132 | 1.158 | 1.057 | 0.9716 | 0.886

CCCOCC(C)OCC(C)O (stereo unspecified) + CO
298.15 K, 101 kPa
Details | viscosity [mPa·s]
x1 = 0.0049 | 0.5615
x1 = 0.0317 | 0.671
x1 = 0.0663 | 0.8138
x1 = 0.1021 | 0.9677
x1 = 0.1531 | 1.186
x1 = 0.2032 | 1.412
x1 = 0.2563 | 1.651
x1 = 0.3125 | 1.899
x1 = 0.3556 | 2.09
x1 = 0.4091 | 2.314
x1 = 0.4685 | 2.55
x1 = 0.5204 | 2.746
x1 = 0.5557 | 2.869
x1 = 0.6337 | 3.117
x1 = 0.6879 | 3.273
x1 = 0.7232 | 3.366
x1 = 0.8407 | 3.639
x1 = 0.8827 | 3.724
x1 = 0.937 | 3.813

CC(=O)OCCC(C)C + Cc1ccc(C)cc1
viscosity [mPa·s], 101 kPa
Details | 298.15 K | 308.15 K
x1 = 0.0453 | 0.615 | 0.54
x1 = 0.1495 | 0.617 | 0.55
x1 = 0.2436 | 0.622 | 0.561
x1 = 0.3501 | 0.632 | 0.576
x1 = 0.4497 | 0.644 | 0.594
x1 = 0.4974 | 0.651 | 0.603
x1 = 0.5484 | 0.659 | 0.613
x1 = 0.6458 | 0.678 | 0.636
x1 = 0.7503 | 0.702 | 0.663
x1 = 0.8492 | 0.73 | 0.693
x1 = 0.9411 | 0.76 | 0.725

CC(=O)OCCC(C)C + Cc1cccc(C)c1
viscosity [mPa·s], 101 kPa
Details | 298.15 K | 308.15 K
x1 = 0.0471 | 0.58 | 0.529
x1 = 0.1507 | 0.583 | 0.538
x1 = 0.286 | 0.593 | 0.555
x1 = 0.3495 | 0.599 | 0.564
x1 = 0.4475 | 0.614 | 0.582
x1 = 0.5021 | 0.625 | 0.594
x1 = 0.5481 | 0.634 | 0.604
x1 = 0.6499 | 0.659 | 0.63
x1 = 0.7526 | 0.69 | 0.66
x1 = 0.8535 | 0.724 | 0.693
x1 = 0.942 | 0.757 | 0.725

CC(=O)OCCC(C)C + Cc1ccccc1
viscosity [mPa·s], 101 kPa
Details | 298.15 K | 308.15 K
x1 = 0.0474 | 0.555 | 0.505
x1 = 0.1513 | 0.567 | 0.522
x1 = 0.2512 | 0.581 | 0.54
x1 = 0.3494 | 0.598 | 0.56
x1 = 0.4458 | 0.616 | 0.581
x1 = 0.4978 | 0.627 | 0.593
x1 = 0.5497 | 0.639 | 0.606
x1 = 0.649 | 0.664 | 0.632
x1 = 0.7499 | 0.692 | 0.661
x1 = 0.855 | 0.726 | 0.695
x1 = 0.9448 | 0.759 | 0.726

CC(=O)OCCC(C)C + Cc1ccccc1C
viscosity [mPa·s], 101 kPa
Details | 298.15 K | 308.15 K
x1 = 0.045 | 0.754 | 0.657
x1 = 0.1503 | 0.745 | 0.659
x1 = 0.2526 | 0.738 | 0.66
x1 = 0.3475 | 0.735 | 0.664
x1 = 0.4468 | 0.735 | 0.67
x1 = 0.4819 | 0.735 | 0.673
x1 = 0.5459 | 0.737 | 0.679
x1 = 0.649 | 0.741 | 0.69
x1 = 0.7465 | 0.749 | 0.702
x1 = 0.8524 | 0.76 | 0.719
x1 = 0.9401 | 0.772 | 0.735

CC(=O)OCCC(C)C + ClC(Cl)(Cl)Cl
303.15 K, 101.3 kPa
Details | viscosity [mPa·s]
x1 = 0.1037 | 0.8143
x1 = 0.1985 | 0.8011
x1 = 0.302 | 0.7904
x1 = 0.4018 | 0.7782
x1 = 0.5027 | 0.7656
x1 = 0.603 | 0.7549
x1 = 0.7015 | 0.7451
x1 = 0.7985 | 0.7325
x1 = 0.9013 | 0.7155

CC(=O)OCCC(C)C + ClC(Cl)Cl
303.15 K, 101.3 kPa
Details | viscosity [mPa·s]
x1 = 0.1037 | 0.5821
x1 = 0.2076 | 0.6427
x1 = 0.301 | 0.6846
x1 = 0.3983 | 0.7145
x1 = 0.5044 | 0.7309
x1 = 0.6009 | 0.7377
x1 = 0.6966 | 0.7338
x1 = 0.8058 | 0.7252
x1 = 0.8911 | 0.7143

CC(=O)OCCC(C)C + Clc1ccccc1
viscosity [mPa·s], 101 kPa
Details | 298.15 K | 303.15 K | 308.15 K | 313.15 K
x1 = 0.0458 | 0.75 | – | 0.678 | –
x1 = 0.0705 | – | 0.718 | – | 0.634
x1 = 0.1467 | – | 0.729 | – | 0.643
x1 = 0.1506 | 0.741 | – | 0.676 | –
x1 = 0.2271 | – | 0.74 | – | 0.654
x1 = 0.251 | 0.735 | – | 0.677 | –
x1 = 0.3141 | – | 0.751 | – | 0.662
x1 = 0.3515 | 0.732 | – | 0.681 | –
x1 = 0.4073 | – | 0.758 | – | 0.669
x1 = 0.4513 | 0.731 | – | 0.684 | –
x1 = 0.4998 | 0.732 | – | 0.687 | –
x1 = 0.5006 | – | 0.767 | – | 0.675
x1 = 0.5511 | 0.734 | – | 0.691 | –
x1 = 0.6085 | – | 0.768 | – | 0.674
x1 = 0.6517 | 0.739 | – | 0.699 | –
x1 = 0.728 | – | 0.766 | – | 0.671
x1 = 0.7519 | 0.747 | – | 0.71 | –
x1 = 0.8507 | 0.758 | – | 0.723 | –
x1 = 0.8573 | – | 0.758 | – | 0.661
x1 = 0.9448 | 0.772 | – | 0.737 | –

CCOP(OCC)OCC + N#Cc1ccccc1
298.15 K, 101 kPa
Details | viscosity [mPa·s]
x1 = 0.2 | 1.089
x1 = 0.4 | 0.963
x1 = 0.6 | 0.848
x1 = 0.8 | 0.781
